For 33 compounds, IC50 results are on record in patent US11535621B2, “Heterobicyclic amides as inhibitors of CD38” (Ribon Therapeutics, Inc., priority 2019, dated 2022).

Chain of Human CD38 (P28907 whole entry): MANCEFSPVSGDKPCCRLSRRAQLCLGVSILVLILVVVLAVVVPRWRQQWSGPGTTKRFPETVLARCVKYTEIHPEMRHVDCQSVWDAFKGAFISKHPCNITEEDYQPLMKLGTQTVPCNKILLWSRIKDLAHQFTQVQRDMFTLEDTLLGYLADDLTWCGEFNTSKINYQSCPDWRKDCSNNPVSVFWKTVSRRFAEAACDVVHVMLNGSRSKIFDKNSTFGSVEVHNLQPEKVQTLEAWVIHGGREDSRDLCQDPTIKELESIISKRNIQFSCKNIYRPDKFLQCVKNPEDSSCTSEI

For the assay, the target named is Human CD38 (Homo sapiens (Human), UniProt P28907). In words: CD38 enzyme assay. In kind it is biochemical. The conditions noted are these: 2 nM CD38, NAD+ substrate, absorbance at 405 nm. An outline of the steps:
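IC50 values come from fitting % inhibition against compound concentration with a 4-parameter logistic, or a 3-parameter fit with top/bottom fixed at 100/0 or Hill at 1. Inhibition is scaled between DMSO wells and positive-control wells treated with a quinolinone CD38 inhibitor.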
Broadly, the IC50 is the concentration needed to halve the response being measured. `CNC(=O)C[C@H]1CC[C@H](NC(=O)c2nc(-n3ccnc3)cc3cn[nH]c23)CC1` [Example 199, 5-(1H-imidazol-1-yl)-N-((1r,4r)-4-(2-(methylamino)-2-oxoethyl)cyclohexyl)-1H-pyrazolo[3,4-c]pyridine-7-carboxamide]: the IC50 was in the range of 10 to 100 nM. The result for `O=C(N[C@H]1CC[C@H](CCO)CC1)c1nc(-n2ccnc2)nc2cc[nH]c12` [Example 200, N-((1r,4r)-4-(2-hydroxyethyl)cyclohexyl)-2-(1H-imidazol-1-yl)-5H-pyrrolo[3,2-d]pyrimidine-4-carboxamide] reads below 10 nM; that for `CN(C)C(=O)CO[C@H]1CC[C@H](NC(=O)c2nc(-n3ccnc3)nc3cn[nH]c23)CC1` [Example 201, N-((1r,4r)-4-(2-(dimethylamino)-2-oxoethoxy)cyclohexyl)-5-(1H-imidazol-1-yl)-1H-pyrazolo[4,3-d]pyrimidine-7-carboxamide], 10 to 100 nM. As for `CN(C)C(=O)CO[C@H]1CC[C@H](NC(=O)c2nc(-n3ccnc3)cc3cn[nH]c23)CC1` [Example 202, N-((1r,4r)-4-(2-(dimethylamino)-2-oxoethoxy)cyclohexyl)-5-(1H-imidazol-1-yl)-1H-pyrazolo[3,4-c]pyridine-7-carboxamide], the figure is 10 to 100 nM; as for `O=C(Nc1ccc(OCCN2CCCC2)nc1)c1nc(-n2ccnc2)cc2cn[nH]c12` [Example 203, 5-(1H-imidazol-1-yl)-N-(6-(2-(pyrrolidin-1-yl)ethoxy)pyridin-3-yl)-1H-pyrazolo[3,4-c]pyridine-7-carboxamide], 10 to 100 nM; as for `O=C(N[C@H]1CC[C@H](N2CC(F)(F)C2)CC1)c1nc(-n2ccnc2)nc2cc[nH]c12` [Example 204, N-((1r,4r)-4-(3,3-difluoroazetidin-1-yl)cyclohexyl)-2-(1H-imidazol-1-yl)-5H-pyrrolo[3,2-d]pyrimidine-4-carboxamide], 10 to 100 nM.

The compound `N#Cc1ccc(NC(=O)c2nc(-n3ccnc3)cc3cn[nH]c23)cc1` [Example 205, N-(4-cyanophenyl)-5-(1H-imidazol-1-yl)-1H-pyrazolo[3,4-c]pyridine-7-carboxamide] came in with an IC50 below 10 nM. As for `O=C(N[C@H]1CC[C@H](NCC(F)F)CC1)c1nc(-n2ccnc2)nc2cn[nH]c12` [Example 206, N-((1r,4r)-4-(2,2-difluoroethylamino)cyclohexyl)-5-(1H-imidazol-1-yl)-1H-pyrazolo[4,3-d]pyrimidine-7-carboxamide], the figure is 10 to 100 nM; as for `CC(=O)NC[C@H]1CC[C@H](NC(=O)c2nc(-n3ccnc3)cc3cn[nH]c23)CC1` [Example 209, N-((1r,4r)-4-(acetamidomethyl)cyclohexyl)-5-(1H-imidazol-1-yl)-1H-pyrazolo[3,4-c]pyridine-7-carboxamide], 10 to 100 nM; as for `CC(C)(O)[C@H]1CC[C@H](NC(=O)c2nc(-n3ccnc3)nc3ccsc23)CC1` [Example 210, N-((1r,4r)-4-(2-hydroxypropan-2-yl)cyclohexyl)-2-(1H-imidazol-1-yl)thieno[3,2-d]pyrimidine-4-carboxamide], below 10 nM.

As to `O=C(Nc1ccc2c(c1)CNC2)c1nc(-n2ccnc2)nc2cc[nH]c12` [Example 211, 2-(1H-imidazol-1-yl)-N-(isoindolin-5-yl)-5H-pyrrolo[3,2-d]pyrimidine-4-carboxamide], the IC50 is below 10 nM. As for `N#Cc1ccc(O[C@H]2CC[C@H](NC(=O)c3nc(-n4ccnc4)nc4cc[nH]c34)CC2)cc1` [Example 212, N-((1r,4r)-4-(4-cyanophenoxy)cyclohexyl)-2-(1H-imidazol-1-yl)-5H-pyrrolo[3,2-d]pyrimidine-4-carboxamide], the figure is below 10 nM; as for `CS(=O)(=O)[C@H]1CC[C@H](NC(=O)c2nc(-n3ccnc3)nc3cc[nH]c23)CC1` [Example 213, 2-(1H-imidazol-1-yl)-N-((1r,4r)-4-(methylsulfonyl)cyclohexyl)-5H-pyrrolo[3,2-d]pyrimidine-4-carboxamide], 10 to 100 nM; as for `N#CCO[C@H]1CC[C@H](NC(=O)c2nc(-n3ccnc3)nc3cn[nH]c23)CC1` [Example 214, N-((1r,4r)-4-(cyanomethoxy)cyclohexyl)-5-(1H-imidazol-1-yl)-1H-pyrazolo[4,3-d]pyrimidine-7-carboxamide], below 10 nM. With `N#CCO[C@H]1CC[C@H](NC(=O)c2nc(-n3ccnc3)cc3cn[nH]c23)CC1` [Example 215, N-((1r,4r)-4-(cyanomethoxy)cyclohexyl)-5-(1H-imidazol-1-yl)-1H-pyrazolo[3,4-c]pyridine-7-carboxamide], the IC50 is below 10 nM.

In turn, `O=C(N[C@H]1CC[C@H](NC2COC2)CC1)c1nc(-n2ccnc2)nc2cc[nH]c12` [Example 216, 2-(1H-imidazol-1-yl)-N-((1r,4r)-4-(oxetan-3-ylamino)cyclohexyl)-5H-pyrrolo[3,2-d]pyrimidine-4-carboxamide] displayed an IC50 of 10 to 100 nM.

`CNC(=O)[C@H]1CC[C@H](NC(=O)c2nc(-n3ccnc3)cc3cn[nH]c23)CC1` [Example 217, 5-(1H-imidazol-1-yl)-N-((1r,4r)-4-(methylcarbamoyl)cyclohexyl)-1H-pyrazolo[3,4-c]pyridine-7-carboxamide] registered an IC50 below 10 nM. As for `CN(CC(F)(F)F)[C@H]1CC[C@H](NC(=O)c2nc(-n3ccnc3)cc3cn[nH]c23)CC1` [Example 218, 5-(1H-imidazol-1-yl)-N-((1r,4r)-4-(methyl(2,2,2-trifluoroethyl)amino)cyclohexyl)-1H-pyrazolo[3,4-c]pyridine-7-carboxamide], the figure is 10 to 100 nM; as for `N#CC[C@H]1CC[C@H](NC(=O)c2nc(-n3ccnc3)cc3cn[nH]c23)CC1` [Example 219, N-((1r,4r)-4-(cyanomethyl)cyclohexyl)-5-(1H-imidazol-1-yl)-1H-pyrazolo[3,4-c]pyridine-7-carboxamide], below 10 nM. In turn, `O=C(N[C@H]1CC[C@H](NCC(F)(F)F)CC1)c1nc(-n2ccnc2)nc2ccsc12` [Example 220, 2-(1H-imidazol-1-yl)-N-((1r,4r)-4-(2,2,2-trifluoroethylamino)cyclohexyl)thieno[3,2-d]pyrimidine-4-carboxamide] showed an IC50 of 10 to 100 nM.

`O=C(N[C@H]1CC[C@H](NCC(F)F)CC1)c1nc(-n2ccnc2)nc2ccsc12` [Example 221, N-((1r,4r)-4-(2,2-difluoroethylamino)cyclohexyl)-2-(1H-imidazol-1-yl)thieno[3,2-d]pyrimidine-4-carboxamide]: the half-maximal inhibitory concentration (IC50) lay in the range of 10 to 100 nM. As for `O=C(N[C@H]1CC[C@H](NCCC(F)(F)F)CC1)c1nc(-n2ccnc2)nc2ccsc12` [Example 222, 2-(1H-imidazol-1-yl)-N-((1r,4r)-4-((3,3,3-trifluoropropyl)amino)cyclohexyl)thieno[3,2-d]pyrimidine-4-carboxamide], the figure is 10 to 100 nM. The result for `CN(C)CCOc1ccc(NC(=O)c2nc(-n3ccnc3)cc3cn[nH]c23)cn1` [Example 223, N-(6-(2-(dimethylamino)ethoxy)pyridin-3-yl)-5-(1H-imidazol-1-yl)-1H-pyrazolo[3,4-c]pyridine-7-carboxamide] reads 10 to 100 nM; that for `O=C(Nc1ccc(N2CCNCC2)nc1)c1nc(-n2ccnc2)cc2cn[nH]c12` [Example 224, 5-(1H-imidazol-1-yl)-N-(6-(piperazin-1-yl)pyridin-3-yl)-1H-pyrazolo[3,4-c]pyridine-7-carboxamide], below 10 nM.

Compound `O=C(N[C@H]1CC[C@H](CO)CC1)c1nc(-n2ccnc2)cc2cn[nH]c12` [Example 225, N-((1r,4r)-4-(hydroxymethyl)cyclohexyl)-5-(1H-imidazol-1-yl)-1H-pyrazolo[3,4-c]pyridine-7-carboxamide] had an IC50 below 10 nM. `C[C@]1(O)CC[C@@H](NC(=O)c2nc(-n3ccnc3)cc3cn[nH]c23)CC1` [Example 226, N-((1s,4s)-4-hydroxy-4-methylcyclohexyl)-5-(1H-imidazol-1-yl)-1H-pyrazolo[3,4-c]pyridine-7-carboxamide] gave an IC50 of 10 to 100 nM. As to `O=C(N[C@H]1CC[C@H](N2CC(F)(F)C2)CC1)c1nc(-n2ccnc2)cc2cn[nH]c12` [Example 227, N-((1r,4r)-4-(3,3-difluoroazetidin-1-yl)cyclohexyl)-5-(1H-imidazol-1-yl)-1H-pyrazolo[3,4-c]pyridine-7-carboxamide], the IC50 was 10 to 100 nM.

Regarding `O=C(N[C@H]1CC[C@H](C2(O)CC2)CC1)c1nc(-n2ccnc2)cc2cn[nH]c12` [Example 228, N-((1r,4r)-4-(1-hydroxycyclopropyl)cyclohexyl)-5-(1H-imidazol-1-yl)-1H-pyrazolo[3,4-c]pyridine-7-carboxamide], the IC50 was below 10 nM. As for `O=C(Nc1ccc(C(F)(F)F)nc1)c1nc(-n2ccnc2)cc2cn[nH]c12` [Example 229, 5-(1H-imidazol-1-yl)-N-(6-(trifluoromethyl)pyridin-3-yl)-1H-pyrazolo[3,4-c]pyridine-7-carboxamide], the figure is below 10 nM. The result for `O=C(Nc1ccc(OCCN2CC3(COC3)C2)nc1)c1nc(-n2ccnc2)cc2cn[nH]c12` [Example 230, N-(6-(2-(2-oxa-6-azaspiro[3.3]heptan-6-yl)ethoxy)pyridin-3-yl)-5-(1H-imidazol-1-yl)-1H-pyrazolo[3,4-c]pyridine-7-carboxamide] reads 10 to 100 nM; that for `O=C(Nc1ccc(OCC(F)(F)F)nc1)c1nc(-n2ccnc2)cc2cn[nH]c12` [Example 231, 5-(1H-imidazol-1-yl)-N-(6-(2,2,2-trifluoroethoxy)pyridin-3-yl)-1H-pyrazolo[3,4-c]pyridine-7-carboxamide], below 10 nM. The result for `O=C(N[C@H]1CC[C@H](N2CCC(F)(F)C2)CC1)c1nc(-n2ccnc2)cc2cn[nH]c12` [Example 232, N-((1r,4r)-4-(3,3-difluoropyrrolidin-1-yl)cyclohexyl)-5-(1H-imidazol-1-yl)-1H-pyrazolo[3,4-c]pyridine-7-carboxamide] reads 10 to 100 nM; that for `O=C(N[C@H]1CC[C@H](NC2COC2)CC1)c1nc(-n2ccnc2)cc2cn[nH]c12` [Example 233, 5-(1H-imidazol-1-yl)-N-((1r,4r)-4-(oxetan-3-ylamino)cyclohexyl)-1H-pyrazolo[3,4-c]pyridine-7-carboxamide], 10 to 100 nM.
